Test results from ChEMBL document CHEMBL4825689, “Halting colorectal cancer metastasis via novel dual nanomolar MMP-9/MAO-A quinoxaline-based inhibitors; design, synthesis, and evaluation” (Eur J Med Chem, 2021).
Activity calls are given as the source filed them. The calls are words filed in the database; no cut-off is given here.

biological target: T1, Matrix metalloproteinase-9 (Homo sapiens, UniProt P14780); assay: Inhibition of MMP9 (unknown origin) by colorimetric assay; conditions: not given
T1 sequence (P14780 whole entry): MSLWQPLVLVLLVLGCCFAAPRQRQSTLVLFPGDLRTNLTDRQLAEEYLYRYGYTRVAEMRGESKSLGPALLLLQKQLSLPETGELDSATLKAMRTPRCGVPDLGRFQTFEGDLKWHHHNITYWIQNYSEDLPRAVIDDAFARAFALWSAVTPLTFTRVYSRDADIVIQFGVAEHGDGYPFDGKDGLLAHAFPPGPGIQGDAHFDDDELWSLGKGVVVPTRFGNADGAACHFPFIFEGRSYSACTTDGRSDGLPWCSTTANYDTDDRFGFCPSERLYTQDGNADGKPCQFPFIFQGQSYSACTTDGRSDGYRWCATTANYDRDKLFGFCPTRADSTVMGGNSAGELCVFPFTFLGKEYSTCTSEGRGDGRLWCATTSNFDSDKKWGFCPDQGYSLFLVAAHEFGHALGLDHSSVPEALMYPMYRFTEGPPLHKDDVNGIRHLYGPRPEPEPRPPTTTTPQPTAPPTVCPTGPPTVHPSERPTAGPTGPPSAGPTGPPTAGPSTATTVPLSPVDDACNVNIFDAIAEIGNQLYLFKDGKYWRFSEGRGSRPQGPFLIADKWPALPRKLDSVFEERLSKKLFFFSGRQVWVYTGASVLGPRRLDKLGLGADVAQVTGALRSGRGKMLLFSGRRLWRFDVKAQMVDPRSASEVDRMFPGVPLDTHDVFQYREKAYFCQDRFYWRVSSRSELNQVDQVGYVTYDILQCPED

IC50 [µM]	SMILES
0.0093	O=c1c(Cc2ccccc2)nc2ccccc2n1CC(O)CO (configuration not stated)
0.0231	Cc1ccc(C(=O)NNC(=O)Cn2c(=O)c(Cc3ccccc3)nc3ccccc32)cc1
0.00841	O=C(Cn1c(=O)c(Cc2ccccc2)nc2ccccc21)NNC(=S)Nc1ccccc1
0.00057	CNC(=O)C(Cc1ccccc1)NC(=O)C(CC(C)C)SC1CCCC1S (configuration not stated)
0.11	CC(C)c1ccc(-n2nnc(-c3ccc(S(=O)(=O)NCC(=O)O)cc3)n2)cc1
0.0045	CCOC(=O)NNC(=O)Cn1c(=O)c(Cc2ccccc2)nc2ccccc21
0.00507	NC(=S)NNC(=O)Cn1c(=O)c(Cc2ccccc2)nc2ccccc21
0.106	COc1cc(/C=N/NC(N)=S)ccc1O

SMILES	IC50 [µM]
O=c1c(O)c(-c2ccc(O)c(O)c2)oc2cc(O)cc(O)c12 [QUERCETIN]	0.174

biological target: T1, Matrix metalloproteinase-9; assay: Inhibition of MMP9 (unknown origin) at 1.3 uM by colorimetric assay relative to control; conditions: not given

inhibition [%]	SMILES
30.5	O=C(CSc1nnc(-c2ccccc2)o1)NCc1ccc2c(c1)OCO2

system: HCT-116; assay: Anticancer activity against human HCT-116 cells overexpressing MMP9/MAO-A by MTT assay; format: functional, cell-based; conditions: not given

IC50 [µM]	SMILES
0.761	COc1cccc2c1C(=O)c1c(O)c3c(c(O)c1C2=O)C[C@@](O)(C(=O)CO)C[C@@H]3O[C@H]1C[C@H](N)[C@H](O)[C@H](C)O1 [DOXORUBICIN]
0.0165	O=C(Cn1c(=O)c(Cc2ccccc2)nc2ccccc21)OCCNCCO
0.0183	CCOC(=O)Cn1c(=O)c(Cc2ccccc2)nc2ccccc21
0.0147	NNC(=O)Cn1c(=O)c(Cc2ccccc2)nc2ccccc21
0.0223	CC(C)(C)OC(=O)C(Cc1ccccc1)NC(=O)Cn1c(=O)c(Cc2ccccc2)nc2ccccc21 (configuration not stated)
0.0187	O=c1c(Cc2ccccc2)nc2ccccc2n1CC(O)CCl (configuration not stated)
0.00881	O=c1c(Cc2ccccc2)nc2ccccc2n1CC(O)CO (configuration not stated)
0.00764	Cc1ccc(C(=O)NNC(=O)Cn2c(=O)c(Cc3ccccc3)nc3ccccc32)cc1
0.0149	Nn1c(Cn2c(=O)c(Cc3ccccc3)nc3ccccc32)nnc1Cn1c(=O)c(Cc2ccccc2)nc2ccccc21
0.0459	O=c1c(Cc2ccccc2)nc2ccccc2n1Cc1nnco1
0.0107	O=c1c(Cc2ccccc2)nc2ccccc2n1Cc1nnc(S)o1
0.00584	O=C(Cn1c(=O)c(Cc2ccccc2)nc2ccccc21)NNC(=S)Nc1ccccc1
0.0186	O=C(Cn1c(=O)c(Cc2ccccc2)nc2ccccc21)NN=c1c(=O)c2ccccc2c1=O
0.0074	CCOC(=O)NNC(=O)Cn1c(=O)c(Cc2ccccc2)nc2ccccc21
16.2	O=C1CC(=O)N(C(=O)Cn2c(=O)c(Cc3ccccc3)nc3ccccc32)N1
0.0129	N=C(N)NS(=O)(=O)c1ccc(NC(=O)Cn2c(=O)c(Cc3ccccc3)nc3ccccc32)cc1
0.036	Nn1c(S)nnc1Cn1c(=O)c(Cc2ccccc2)nc2ccccc21
0.00557	NC(=S)NNC(=O)Cn1c(=O)c(Cc2ccccc2)nc2ccccc21
0.0158	O=C(O)Cn1c(=O)c(Cc2ccccc2)nc2ccccc21
0.0198	O=c1c(Cc2ccccc2)nc2ccccc2n1Cc1nnc(S)n1-c1ccccc1
16.3	O=C(Cn1c(=O)c(Cc2ccccc2)nc2ccccc21)N/N=C/c1ccccc1O

system: not listed separately; assay: Suppression of HIF1alpha expression in human HCT116 cells assessed as fold change by qRT-PCR analysis; format: functional, HCT-116; conditions: not given

SMILES	fold change (FC)
O=c1c(Cc2ccccc2)nc2ccccc2n1CC(O)CO (configuration not stated)	>5
Cc1ccc(C(=O)NNC(=O)Cn2c(=O)c(Cc3ccccc3)nc3ccccc32)cc1	>15.94
O=C(Cn1c(=O)c(Cc2ccccc2)nc2ccccc21)NNC(=S)Nc1ccccc1	>5
CCOC(=O)NNC(=O)Cn1c(=O)c(Cc2ccccc2)nc2ccccc21	>5
NC(=S)NNC(=O)Cn1c(=O)c(Cc2ccccc2)nc2ccccc21	>11.02

system: HCT-116; assay: Inhibition of cell migration in human HCT116 cells assessed as suppression of cell migration incubated for 20 hrs by wound healing assay relative to control; format: functional; conditions: not given

SMILES	inhibition (INH) [%]
O=c1c(Cc2ccccc2)nc2ccccc2n1CC(O)CO (configuration not stated)	27.48
Cc1ccc(C(=O)NNC(=O)Cn2c(=O)c(Cc3ccccc3)nc3ccccc32)cc1	73.32
O=C(Cn1c(=O)c(Cc2ccccc2)nc2ccccc21)NNC(=S)Nc1ccccc1	21.27
CCOC(=O)NNC(=O)Cn1c(=O)c(Cc2ccccc2)nc2ccccc21	28.82
NC(=S)NNC(=O)Cn1c(=O)c(Cc2ccccc2)nc2ccccc21	61.29

system: HCT-116; assay: Anticancer activity against human HCT116 cells overexpressing MMP9 assessed as shrinkage incubated for 72 hrs by morphology alteration assay; format: functional, cell-based; conditions: not given

SMILES	Activity
O=c1c(Cc2ccccc2)nc2ccccc2n1CC(O)CO (configuration not stated)	Active
Cc1ccc(C(=O)NNC(=O)Cn2c(=O)c(Cc3ccccc3)nc3ccccc32)cc1	Active
CCOC(=O)NNC(=O)Cn1c(=O)c(Cc2ccccc2)nc2ccccc21	Active

species on record: Homo sapiens; assay: Selectivity for MAO-B (unknown origin) to MAO-A (unknown origin); conditions: not given

Selectivity Index	SMILES
0.921	O=c1c(Cc2ccccc2)nc2ccccc2n1CC(O)CO (configuration not stated)
1.88	Cc1ccc(C(=O)NNC(=O)Cn2c(=O)c(Cc3ccccc3)nc3ccccc32)cc1
0.649	O=C(Cn1c(=O)c(Cc2ccccc2)nc2ccccc21)NNC(=S)Nc1ccccc1
2.07	CCOC(=O)NNC(=O)Cn1c(=O)c(Cc2ccccc2)nc2ccccc21
1.33	NC(=S)NNC(=O)Cn1c(=O)c(Cc2ccccc2)nc2ccccc21

biological target: T2, Amine oxidase [flavin-containing] A (Homo sapiens, UniProt P21397); assay: Inhibition of MAO-A (unknown origin) by multi-well spectrophotometry; conditions: not given
T2 sequence (P21397 whole entry): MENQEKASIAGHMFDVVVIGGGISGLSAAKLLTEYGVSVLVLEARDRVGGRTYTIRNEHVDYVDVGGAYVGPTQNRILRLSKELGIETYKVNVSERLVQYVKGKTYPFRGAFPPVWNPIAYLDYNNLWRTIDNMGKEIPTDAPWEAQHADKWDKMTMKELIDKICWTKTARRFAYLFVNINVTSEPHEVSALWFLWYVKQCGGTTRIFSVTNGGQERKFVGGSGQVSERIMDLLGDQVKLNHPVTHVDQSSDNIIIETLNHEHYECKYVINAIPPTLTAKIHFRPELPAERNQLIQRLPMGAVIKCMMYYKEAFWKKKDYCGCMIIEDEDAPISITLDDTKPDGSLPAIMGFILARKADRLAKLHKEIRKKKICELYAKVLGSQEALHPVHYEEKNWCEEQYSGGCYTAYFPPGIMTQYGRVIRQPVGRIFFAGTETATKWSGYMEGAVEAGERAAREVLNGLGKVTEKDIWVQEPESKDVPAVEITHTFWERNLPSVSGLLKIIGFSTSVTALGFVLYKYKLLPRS

SMILES	IC50
C#CCN(C)CCCOc1ccc(Cl)cc1Cl [CLORGILINE]	Not Active

same assay, conditions: read-out: IC50

IC50 [µM]	SMILES
0.0152	CC(C)(C)OC(=O)C(Cc1ccccc1)NC(=O)Cn1c(=O)c(Cc2ccccc2)nc2ccccc21 (configuration not stated)
0.081	C(=N\NC1Nc2ccccc2N=C1Cc1ccccc1)/c1ccccc1 (configuration not stated)
0.0007	c1ccc(Cc2nc3ccccc3n3cnnc23)cc1
0.024	O=c1c(Cc2ccccc2)nc2ccccc2n1CC(O)CO (configuration not stated)
0.00533	Cc1ccc(C(=O)NNC(=O)Cn2c(=O)c(Cc3ccccc3)nc3ccccc32)cc1
0.00541	O=C(Cn1c(=O)c(Cc2ccccc2)nc2ccccc21)NNC(=S)Nc1ccccc1
0.0119	CCOC(=O)NNC(=O)Cn1c(=O)c(Cc2ccccc2)nc2ccccc21
0.0105	NC(=S)NNC(=O)Cn1c(=O)c(Cc2ccccc2)nc2ccccc21

system: Epithelial cell; assay: Cytotoxicity against albino rat epithelial rat by MTT assay; format: cell-based; conditions: not given

SMILES	IC50 [µM]
COc1cccc2c1C(=O)c1c(O)c3c(c(O)c1C2=O)C[C@@](O)(C(=O)CO)C[C@@H]3O[C@H]1C[C@H](N)[C@H](O)[C@H](C)O1 [DOXORUBICIN]	0.00979
O=C(Cn1c(=O)c(Cc2ccccc2)nc2ccccc21)OCCNCCO	0.00503
CCOC(=O)Cn1c(=O)c(Cc2ccccc2)nc2ccccc21	0.0102
NNC(=O)Cn1c(=O)c(Cc2ccccc2)nc2ccccc21	0.0106
CC(C)(C)OC(=O)C(Cc1ccccc1)NC(=O)Cn1c(=O)c(Cc2ccccc2)nc2ccccc21 (configuration not stated)	0.0261
O=c1c(Cc2ccccc2)nc2ccccc2n1CC(O)CCl (configuration not stated)	0.0163
O=c1c(Cc2ccccc2)nc2ccccc2n1CC(O)CO (configuration not stated)	0.0487
Cc1ccc(C(=O)NNC(=O)Cn2c(=O)c(Cc3ccccc3)nc3ccccc32)cc1	0.0497
Nn1c(Cn2c(=O)c(Cc3ccccc3)nc3ccccc32)nnc1Cn1c(=O)c(Cc2ccccc2)nc2ccccc21	0.00604
O=c1c(Cc2ccccc2)nc2ccccc2n1Cc1nnco1	0.00984
O=c1c(Cc2ccccc2)nc2ccccc2n1Cc1nnc(S)o1	0.00529
O=C(Cn1c(=O)c(Cc2ccccc2)nc2ccccc21)NNC(=S)Nc1ccccc1	0.0161
O=C(Cn1c(=O)c(Cc2ccccc2)nc2ccccc21)NN=c1c(=O)c2ccccc2c1=O	0.00798
CCOC(=O)NNC(=O)Cn1c(=O)c(Cc2ccccc2)nc2ccccc21	0.0389
O=C1CC(=O)N(C(=O)Cn2c(=O)c(Cc3ccccc3)nc3ccccc32)N1	0.00895
N=C(N)NS(=O)(=O)c1ccc(NC(=O)Cn2c(=O)c(Cc3ccccc3)nc3ccccc32)cc1	0.00897
Nn1c(S)nnc1Cn1c(=O)c(Cc2ccccc2)nc2ccccc21	0.00542
NC(=S)NNC(=O)Cn1c(=O)c(Cc2ccccc2)nc2ccccc21	0.0537
O=C(O)Cn1c(=O)c(Cc2ccccc2)nc2ccccc21	13.3
O=c1c(Cc2ccccc2)nc2ccccc2n1Cc1nnc(S)n1-c1ccccc1	0.00778
O=C(Cn1c(=O)c(Cc2ccccc2)nc2ccccc21)N/N=C/c1ccccc1O	0.00812

biological target: T3, Amine oxidase [flavin-containing] B (Homo sapiens, UniProt P27338); assay: Inhibition of MAO-B (unknown origin) by fluorometric assay; conditions: not given
T3 sequence (P27338 whole entry): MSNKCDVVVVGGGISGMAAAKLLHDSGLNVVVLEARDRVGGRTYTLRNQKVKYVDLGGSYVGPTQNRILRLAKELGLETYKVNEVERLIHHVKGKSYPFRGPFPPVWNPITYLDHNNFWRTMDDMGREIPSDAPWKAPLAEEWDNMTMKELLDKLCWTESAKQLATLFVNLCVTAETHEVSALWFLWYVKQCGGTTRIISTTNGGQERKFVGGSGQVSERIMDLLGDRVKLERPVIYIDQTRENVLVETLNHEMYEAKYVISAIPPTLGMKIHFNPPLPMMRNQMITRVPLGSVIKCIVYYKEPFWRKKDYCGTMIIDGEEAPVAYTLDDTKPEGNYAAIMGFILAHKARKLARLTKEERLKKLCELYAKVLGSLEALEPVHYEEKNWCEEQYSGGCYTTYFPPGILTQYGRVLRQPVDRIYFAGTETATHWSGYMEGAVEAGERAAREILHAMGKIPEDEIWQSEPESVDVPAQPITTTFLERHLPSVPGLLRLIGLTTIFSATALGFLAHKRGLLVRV

IC50 [µM]	SMILES
0.011	O=c1c(Cc2ccccc2)nc2ccccc2n1CC(O)CO (configuration not stated)
0.0286	Cc1ccc(C(=O)NNC(=O)Cn2c(=O)c(Cc3ccccc3)nc3ccccc32)cc1
0.00681	O=C(Cn1c(=O)c(Cc2ccccc2)nc2ccccc21)NNC(=S)Nc1ccccc1
0.0112	CCOC(=O)NNC(=O)Cn1c(=O)c(Cc2ccccc2)nc2ccccc21
0.00709	NC(=S)NNC(=O)Cn1c(=O)c(Cc2ccccc2)nc2ccccc21

system: not listed separately; assay: Selectivity index, ratio of IC50 for albino rat epithelial rat to IC50 for human HCT116 cells overexpressing MMP9/MAO-A; conditions: not given

SMILES	Selectivity Index
COc1cccc2c1C(=O)c1c(O)c3c(c(O)c1C2=O)C[C@@](O)(C(=O)CO)C[C@@H]3O[C@H]1C[C@H](N)[C@H](O)[C@H](C)O1 [DOXORUBICIN]	0.013
CCOC(=O)Cn1c(=O)c(Cc2ccccc2)nc2ccccc21	0.559
NNC(=O)Cn1c(=O)c(Cc2ccccc2)nc2ccccc21	0.729
CC(C)(C)OC(=O)C(Cc1ccccc1)NC(=O)Cn1c(=O)c(Cc2ccccc2)nc2ccccc21 (configuration not stated)	1.172
O=c1c(Cc2ccccc2)nc2ccccc2n1CC(O)CCl (configuration not stated)	0.954
O=c1c(Cc2ccccc2)nc2ccccc2n1CC(O)CO (configuration not stated)	5.52
Cc1ccc(C(=O)NNC(=O)Cn2c(=O)c(Cc3ccccc3)nc3ccccc32)cc1	6.51
Nn1c(Cn2c(=O)c(Cc3ccccc3)nc3ccccc32)nnc1Cn1c(=O)c(Cc2ccccc2)nc2ccccc21	0.405
O=c1c(Cc2ccccc2)nc2ccccc2n1Cc1nnc(S)o1	0.512
O=C(Cn1c(=O)c(Cc2ccccc2)nc2ccccc21)NNC(=S)Nc1ccccc1	2.751
O=C(Cn1c(=O)c(Cc2ccccc2)nc2ccccc21)NN=c1c(=O)c2ccccc2c1=O	0.435
CCOC(=O)NNC(=O)Cn1c(=O)c(Cc2ccccc2)nc2ccccc21	5.266
O=C1CC(=O)N(C(=O)Cn2c(=O)c(Cc3ccccc3)nc3ccccc32)N1	0.553
N=C(N)NS(=O)(=O)c1ccc(NC(=O)Cn2c(=O)c(Cc3ccccc3)nc3ccccc32)cc1	0.695
Nn1c(S)nnc1Cn1c(=O)c(Cc2ccccc2)nc2ccccc21	0.15
NC(=S)NNC(=O)Cn1c(=O)c(Cc2ccccc2)nc2ccccc21	9.648
O=C(O)Cn1c(=O)c(Cc2ccccc2)nc2ccccc21	0.844
O=C(Cn1c(=O)c(Cc2ccccc2)nc2ccccc21)N/N=C/c1ccccc1O	0.508
